Patent publication US20110112195A1 (priority 2004, published 2011)
In brackets after ≈: the same amount, converted by molar mass. Read-outs that look alike come from different tables or passages of the source.

What was measured:
Ebola = assay type: cell-based
SARS-CoV [1] = assay: microbe, parasite or virus in culture; assay type: cell-based
Adenovirus = assay type: cell-based
vaccinia virus (WR) [2] = assay type: cell-based
West Nile Virus = assay type: cell-based
[3] = molecular target: H1L phosphatase (GST-H1L fusion protein) (Vaccinia virus, UniProt P07239); assay: biochemical
SARS-CoV [4] = assay type: cell-based
vaccinia virus (WR) [5] = assay type: cell-based; remark: listed apart in the source
[6] = test system: adenovirus type 5 expressing EGFP; assay type: cell-based
in vitro = details: African green monkey
SARS-CoV [7] = details: cited from earlier work

With `O=C(O)C1=CC(=C(c2ccc(O)c(C(=O)O)c2)c2ccc(O)c(C(=O)O)c2)C=CC1=O` [ATA, aurintricarboxylic acid] the “effect on Ebola” value (Ebola) was “no effect”, the “inhibition of virus replication compared to untreated controls” value (SARS-CoV [1]) was at most 1000 fold and the “viral replication level lower than control” value (SARS-CoV [1]) was 10 times. For the same compound, the EC50 (SARS-CoV [1]; Severe acute respiratory syndrome coronavirus, Vero) was 200 µg/mL (≈ 0.474 mM), the “effect on Adenovirus” value (Adenovirus) was “no effect” and the “plaque count (peak viral load)” value (vaccinia virus (WR) [2]) was 616 pfu/mL. The “viral count in treated sample as share of untreated control” value (vaccinia virus (WR) [2]) was 0.00026%, the “toxicity associated with treatment” value (Vero cells) was “little toxicity” and the “inhibition of West Nile Virus” value (West Nile Virus) was 10000 fold. The IC50 [3] was 16 µM, the “inhibition of virus RNA replication” value (SARS-CoV [4]) was “more than 1,000 fold” and the “potency of ATA relative to interferon α as anti-SARS-CoV agent” value (SARS-CoV [4]) was “about 10 times”. For the same compound, the “potency of ATA relative to interferon β as anti-SARS-CoV agent” value (SARS-CoV [4]) was about 100 times, the “lowest drug concentration at which block in vaccinia replication was evident” value (vaccinia virus (WR) [5]) was 25 µg/mL and the “inhibition of EGFP expression by adenovirus” value [6] was “No significant inhibition”. For the same compound, the CC50 (in vitro) was 37.5 mg/mL (≈ 88.8 mM).
In the case of `CC1(C)[C@@H](O[C@H]2O[C@H](C(=O)O)[C@@H](O)[C@H](O)[C@H]2O[C@@H]2O[C@H](C(=O)O)[C@@H](O)[C@H](O)[C@H]2O)CC[C@]2(C)[C@H]3C(=O)C=C4[C@@H]5C[C@@](C)(C(=O)O)CC[C@]5(C)CC[C@@]4(C)[C@]3(C)CC[C@@H]12` [glycyrrhizin], the “inhibition effect on SARS-CoV replication (logs)” value (SARS-CoV [7]) is given as “two logs or less”.
In the case of `Cc1c(O)cccc1C(=O)N[C@@H](CSc1ccccc1)[C@H](O)CN1C[C@H]2CCCC[C@H]2C[C@H]1C(=O)NC(C)(C)C` [nelfinavir], the “inhibition effect on SARS-CoV replication (logs)” value (SARS-CoV [7]) is given as “two logs or less”.
For `NC(=O)c1ncn([C@@H]2O[C@H](CO)[C@@H](O)[C@H]2O)n1` [ribavarin], the “effect against SARS-CoV replication” value (SARS-CoV [7]) is given as “little effect”.
In the case of IFNα, the EC50 (SARS-CoV [1]) is reported as 500 IU/ml, the CC50 (Vero cells) is reported as 15000 IU/ml and the “inhibition effect with pre-treatment compared with samples without pre-treatment” value (SARS-CoV [4]) is reported as “about the same”. For the same compound, the “inhibition of virus RNA replication” value (SARS-CoV [4]) was 100 fold.
